As usually defined, the pIC50 is the negative decadic logarithm of the IC50, by convention in mol/L.

pIC50: −log10 of the molar value.

Experiment [1] concerns Phospho-Myosin Light Chain2 (Ser19). The experiment in a line: Cell activity test: MLC2 (Ser19) phosphorylation in A7R5 cells (Western blot). It counts as cell-based. Conditions: starved 20 hours, compound treatment 60 minutes, MLC2 (Ser19) phosphorylation corrected with GAPDH, read-out: cell activities (IC50). The protocol: Example 43: Cell Activity Test
1) The A7R5 cells in the logarithmic growth phase were digested, 2E5 cells per well were inoculated in a 6-well plate and incubated overnight at 37° C. with 5% CO2, and the cell culture medium was replaced with a starvation medium containing 0.05% FBS after 24 hours. The cells were starved for 20 hours.
2) The starvation medium was removed, the cells were treated with the prepared compound concentration gradient for 60 minutes, VIP-5021 (10 uM) was set as the positive control, and the DMSO group was set as the negative control.
3) After the compound treatment, the compound solutions were aspirated, washed with PBS two times, 100 ul of cell lysate was added to each well, the cells were gently scraped with a cell scraper, and the cells were transferred to a centrifuge tube and lysed on ice for 60 minutes.
4) After the lysis, centrifugation was performed at 4° C. and 14000 rpm for 15 minutes, the lysate supernatant was collected, protein quantification was performed using the BCA method, the protein concentration was adjusted, the loading buffer was added according to proportion, and treatment was performed at 100° C. for 10 minutes to denature the protein.
5) An electrophoresis equipment was assembled, 20 ug of total protein was loaded per sample, the voltage was fixed at 125 V, and electrophoresis was performed for 90 minutes. After the electrophoresis was completed, the membrane transfer system was assembled with a fixed current of 300 mA and the membrane was transferred for 120 minutes. After the membrane transfer was completed, the PVDF membrane was removed and washed with PBS two times. A blocking solution was added to block at room temperature for 60 minutes. The blocking solution was removed, a solution containing the primary antibody (Phospho-Myosin Light Chain2 (Ser19)) (antibody dilution ratio 1:1000) was added, GAPDH was selected as internal control, and incubation was performed overnight at 4° C.
6) Washing was performed with PBST three times, HRP-antibody containing the corresponding species (secondary antibody dilution ratio 1:2000) was added, incubation was performed at room temperature for 60 minutes, and washing was performed with PBST three times. HRP chemiluminescence substrate was prepared, and dropwisely added on the PVDF membrane based on 0.1 mL per square centimeter to react for 30 seconds, and the chemiluminescence signal was collected with a gel imager (ChemiDoc XRS+(BIO-RAD)).
7) Each band was quantitatively analyzed using image J software, and the phosphorylated protein level of Phospho-Myosin Light Chain2 (Ser19) in each sample was corrected using GAPDH expression as internal reference.
1) Taking the MLC2 (Ser19) protein phosphorylation level of the highest concentration compound sample as 100% inhibition rate, and taking the MLC2 (Ser19) protein phosphorylation level of the negative control group (DMSO group) as 0% inhibition rate, the percentage inhibition rate corresponding to each concentration of the test compounds was calculated.
2) In the GraphPad Prism software, a nonlinear regression analysis was performed on the logarithm of the concentrations of the test compounds and the corresponding percentage inhibition rates to obtain the half-inhibitory concentrations (IC50) of the cell levels of the test compounds.
The cell activities (IC50) of the compounds detected by this method are as follows: […]

For experiment [2], the target named is ROCK2 (Homo sapiens, UniProt O75116). Kind of experiment: ROCK2 kinase inhibitor activity test (HTRF). The format is biochemical. Conditions: ROCK2 1 nM, substrate 500 nM, ATP 6 uM, 1.5 hours at room temperature, read-out: ROCK2 kinase inhibitor activities (IC50). The protocol:
ROCK2 Kinase Inhibitor Activity Test
1) 4× ROCK2 reaction solution, 4×ATP reaction solution, 4× substrate solution, and 4× compound solution were prepared according to experimental requirements.
2) 2.5 μL of 4× kinase solution and 2.5 μL of diluted 4× test compound solutions with different concentration gradients were added to a 384-well plate. 2 replicate wells were provided for each concentration, and an enzyme solution blank control group and a negative control group (DMSO group) were provided at the same time. Centrifugation was performed at 1000 rpm for 1 minute, and the enzyme and the compounds were mixed. 2.5 μL of 4× substrate solution was added to the 384-well plate, centrifugation was performed at 1000 rpm for 1 minute, 2.5 μL of 4× ATP solution was added to the 384-well plate, centrifugation was performed at 1000 rpm for 1 minute to start the enzyme reaction, and incubation was performed at room temperature for 1.5 hours.
The final concentration of each component of the ROCK2 reaction was: ROCK2: 1 nM, substrate: 500 nM, ATP: 6 uM, and the final concentration range of the test compounds was: 100 nM to 5 pM.
3) 4× Streptavidin-XL-665 detection solution was prepared according to experimental requirements.
4) After the enzyme reaction was completed, 5 ul of 4× Streptavidin-XL-665 detection solution was added to each well of the 384-well plate, and centrifugation was performed at 1000 rpm for 1 minute. 5 μL of 4×STK Antibody-cryptate detection antibody solution was added to each well of the 384-well plate, centrifugation was performed at 1000 rpm for 1 minute, and incubation was performed for 1 hour at room temperature.
5) After antibody incubation was completed, the signal value of each well was measured by the HTRF program on an Envision plate reader.
1) Taking the enzyme solution blank control group as 100% inhibition rate and the negative control group (DMSO group) as 0% inhibition rate, the percentage inhibition rate corresponding to each concentration of the test compound was calculated.
2) In the GraphPad Prism software, a nonlinear regression analysis was performed on the logarithm of the concentrations of the test compounds and the corresponding percentage inhibition rates to obtain the half-inhibitory concentrations (IC50) of the test compounds.
The ROCK2 kinase inhibitor activities (IC50) of the compounds detected by this method are as follows: […]
For orientation: In TR-FRET formats the signal depends on donor and acceptor labels being close together.

Sequence of ROCK2 (O75116 whole entry): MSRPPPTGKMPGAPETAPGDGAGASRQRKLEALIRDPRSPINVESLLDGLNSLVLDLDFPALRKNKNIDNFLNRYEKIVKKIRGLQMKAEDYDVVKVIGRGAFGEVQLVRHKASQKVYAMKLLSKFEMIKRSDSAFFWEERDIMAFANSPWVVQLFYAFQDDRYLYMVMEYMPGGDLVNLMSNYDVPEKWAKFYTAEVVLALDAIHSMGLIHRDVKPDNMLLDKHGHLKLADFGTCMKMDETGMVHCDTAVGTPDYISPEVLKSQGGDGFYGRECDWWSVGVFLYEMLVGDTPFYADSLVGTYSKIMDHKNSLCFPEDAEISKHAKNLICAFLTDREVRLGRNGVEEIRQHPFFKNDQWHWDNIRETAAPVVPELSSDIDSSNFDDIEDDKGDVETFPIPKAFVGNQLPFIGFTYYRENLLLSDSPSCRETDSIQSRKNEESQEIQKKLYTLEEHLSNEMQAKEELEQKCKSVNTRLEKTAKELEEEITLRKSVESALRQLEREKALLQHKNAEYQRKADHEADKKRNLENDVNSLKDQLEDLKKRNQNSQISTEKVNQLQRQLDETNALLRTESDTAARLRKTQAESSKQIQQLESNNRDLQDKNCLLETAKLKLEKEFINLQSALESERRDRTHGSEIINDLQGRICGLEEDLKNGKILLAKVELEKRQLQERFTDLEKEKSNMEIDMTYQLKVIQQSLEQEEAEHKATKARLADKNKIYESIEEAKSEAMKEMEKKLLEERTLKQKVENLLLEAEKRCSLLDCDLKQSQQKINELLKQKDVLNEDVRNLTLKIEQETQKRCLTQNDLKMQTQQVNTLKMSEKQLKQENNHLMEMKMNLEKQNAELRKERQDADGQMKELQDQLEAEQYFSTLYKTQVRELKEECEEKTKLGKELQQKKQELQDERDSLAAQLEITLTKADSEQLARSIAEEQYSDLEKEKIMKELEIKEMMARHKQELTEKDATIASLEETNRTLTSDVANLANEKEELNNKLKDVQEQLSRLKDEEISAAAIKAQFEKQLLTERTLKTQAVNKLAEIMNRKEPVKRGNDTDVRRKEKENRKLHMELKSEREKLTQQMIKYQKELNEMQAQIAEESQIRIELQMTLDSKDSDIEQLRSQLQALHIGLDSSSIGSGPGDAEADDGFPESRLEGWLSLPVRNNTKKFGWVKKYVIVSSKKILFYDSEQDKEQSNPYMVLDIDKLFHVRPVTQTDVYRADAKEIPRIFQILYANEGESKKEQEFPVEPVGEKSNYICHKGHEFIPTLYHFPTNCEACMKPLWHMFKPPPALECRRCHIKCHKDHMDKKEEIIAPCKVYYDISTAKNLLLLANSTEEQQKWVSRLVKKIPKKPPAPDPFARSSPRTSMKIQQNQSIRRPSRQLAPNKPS

As for `NC[C@@H](C(=O)Nc1cc2ccncc2s1)c1ccc(CO[N+](=O)[O-])cc1` [Example 1, (S)-4-(3-amino-1-oxo-1-(thieno[2,3-c]pyridin-2-ylamino)prop-2-yl)benzyl nitrate], the negative logarithm of the IC50 (pIC50) in experiment [1] is 7.28; in experiment [2], 9.30.
`NCC(C(=O)Nc1cc2ccncc2s1)c1ccc(OCC(CO[N+](=O)[O-])O[N+](=O)[O-])cc1` (centres unmarked) [Example 7, 3-(4-(3-amino-1-oxo-1-(thieno[2,3-c]pyridin-2-ylamino)prop-2-yl)phenoxy)propane-1,2-dinitrate]: the values for the pIC50 in experiment [1] and in experiment [2] were 8.06 and 8.66, respectively.
For `NCC(C(=O)Nc1cc2ccncc2s1)c1ccc(CCCO[N+](=O)[O-])cc1` (centres unmarked) [Example 8, 3-(4-(3-amino-1-oxo-1-thieno[2,3-c]pyridin-2-ylamino)prop-2-yl)phenyl)propyl nitrate], the pIC50 is 7.45 in experiment [1] and 8.23 in experiment [2].
On the same counts, the results for `NC[C@@H](C(=O)Nc1cc2ccncc2s1)c1ccc(COC(=O)CCCCO[N+](=O)[O-])cc1` [Example 9, (S)-4-(3-amino-1-oxo-1-(thieno[2,3-c]pyridin-2-ylamino)prop-2-yl)benzyl 5-(nitrooxy)valerate] are 7.52 and 8.99.
Taken in the same sequence, the figures for `NC[C@@H](C(=O)Nc1cc2ccncc2s1)c1ccc(CCO[N+](=O)[O-])cc1` [Example 11, (S)-4-(3-amino-1-oxo-1-(thieno[2,3-c]pyridin-2-ylamino)propan-2-yl)phenethyl nitrate] were 7.67 and 8.22.
On the same counts, the results for `NC[C@@H](C(=O)Nc1cc2ccncc2s1)c1ccc(COC(=O)OCCCCO[N+](=O)[O-])cc1` [Example 13, (S)-4-(3-amino-1-oxo-1-(thieno[2,3-c]pyridin-2-ylamino)prop-2-yl)benzyl(4-(nitrooxy)butyl)carbonate] are 7.40 and 8.82.
For the molecule `NC[C@@H](C(=O)Nc1cc2ccncc2s1)c1ccc(COC(=O)C2CC(CO[N+](=O)[O-])(CO[N+](=O)[O-])C2)cc1` [Example 36, (S)-4-(3-amino-1-oxy-1-(thieno[2,3-c]pyridin-2-ylamino)prop-2-yl)benzyl 3,3-bis((nitrooxy)methyl)cyclobutane-1-carboxylate], the pIC50 in experiment [2] is 7.49.
With `NC[C@@H](C(=O)Nc1cc2ccncc2s1)c1ccc(COC(=O)C2C[C@@H](O[N+](=O)[O-])[C@H](O[N+](=O)[O-])C2)cc1` [Example 37, (3R,4R)-4-((S)-3-amino-1-oxy-1-(thieno[2,3-c]pyridin-2-ylamino)propan-2-yl)benzyl 3,4-bis(nitrooxy)cyclopentane carboxylate], in experiment [2], the pIC50 was 8.84.
The same measure, in the same setting: with `NC[C@@H](C(=O)Nc1cc2ccncc2s1)c1ccc(COC(=O)C2CCC(CO[N+](=O)[O-])CC2)cc1` (stereo partly drawn) [Example 38, (1r,4S)-4-((S)-3-amino-1-oxy-1-(thieno[2,3-c]pyridin-2-ylamino)propan-2-yl)benzyl 4-((nitrooxy)methyl)cyclohexanecarboxylic acid] the figure was 7.71; with `NC[C@@H](C(=O)Nc1cc2ccncc2s1)c1ccc(COC(=O)[C@@H]2CCCN2CCO[N+](=O)[O-])cc1` [Example 39], 7.53; with `CN(C)C[C@@H](C(=O)Nc1cc2ccncc2s1)c1ccc(COC(=O)C(C)(CO[N+](=O)[O-])CO[N+](=O)[O-])cc1` [Example 40, (S)-4-(3-(dimethylamino)-1-oxo-1-(thieno[2,3-c]pyridin-2-ylamino)propan-2-yl)benzyl 2-methyl-3-(nitrooxy)-2-((nitrooxy)methyl)propionate], 8.69.

(Values after patent US20220332726A1, “NITROXIDE DERIVATIVE OF ROCK KINASE INHIBITOR” (VIVAVISION (SHANGHAI) LTD, priority 2020, published 2022).)
